Assay results: EP4140481A1, “PROTEIN-OLIGOMER BINDING AGENTS AND THERAPEUTIC USES THEREOF” (Galyan Bio, Inc., priority 2021, dated 2023)
Read-outs that look alike come from different tables or passages of the source.

Experiments:
mHTT = target: T1, mHTT (Homo sapiens, UniProt P42858); assay: mHTT levels in striatal cells (immunocytochemistry); format: cell-based, mouse; details: STHdh 111/111; for mHTT after treatment / remaining activity at 10 µM: 10 µM, percentage in comparison to untreated STHdh 111/111, 3B5H10 antibody; for mHTT after treatment / remaining activity at 10 µM / Nuclear mHTT after treatment: 3 hours heat shock, 48 hours treatment; for remaining activity at 10 µM: read-out: mHTT after treatment
T1 construct: host or cells: ST HDH Q111/111 mouse striatal cell line (knock-in locus)
Method: (§1) Staining - Cells were permeabilized with 0.3% Triton X-100 in 4 °C PBS (pH 7.4 from ThermoFisher) for 10 minutes. Then the cells were washed two times with 4 °C PBS. Subsequently, cells are blocked with 3% NGS (normal goat serum from Thermo Fisher) in 4 ° C PBS for 1 hour. Cells were incubated with primary antibodies in blocking buffer (PBS, 3% NGS, 0.02% NaN3) over night at 4 °C. Primary antibodies were mouse antipolyglutamine monoclonal antibody 3B5H10 (Sigma-Aldrich) at 1:250 dilution and Guinea Pig anti-MAP2 polyclonal antibody (Synaptic Systems) at 1:500 dilution. 3B5H10 binds to diffuse mHTT. Diffuse mHTT is a monomeric and small oligomeric mHTT. Diffuse mHTT is correlated to pathological parameters in Huntington's disease. Compounds that bind the mHTT will reduce the levels of diffuse mHTT detected.
Cells were washed 2 times with 4 °C PBS, and then incubated with secondary antibodies at 1:2000 dilution in blocking buffer for 1hour at room temperature. […] Cells were washed 2 times with 4 °C PBS, and then the nuclei were counterstain with DAPI (ThermoFisher) for 10 min at room temperature in the dark. Cells were washed 2 times with 4 °C PBS, and then 4 °C PBS was added to cells and then images were acquired. […] Table 11: Antibodies Used in Immunocytochemistry Studies
Fluorescence Imaging - Imaging sessions were performed on a confocal microscope system (Carl Zeiss Microscopy) equipped with a dual spinning disk unit (Yokogawa). All components of the imaging system were controlled via the ZEN 2 software suite (Carl Zeiss Microscopy). The laser lines used were 405 nm, 488 nm and 639 nm to excite DAPI or the respective fluorophores. […] Nested t test was performed to calculate the significance amongst repeated measurements using GraphPad Prism software.
as §1, with “For LC3 staining primary antibodies were mouse anti-LC3 mab (5F10) (nanoTools) at 1:500 dilution” for “3B5H10 binds to diffuse mHTT. Diffuse mHTT is a monomeric”, “Guinea Pig anti-MAP2 polyclonal antibody (Synaptic Systems) at 1:500 dilution.” for “small oligomeric mHTT. Diffuse mHTT is correlated to pathological parameters in Huntington's disease. Compounds that bind the mHTT will reduce the levels of diffuse mHTT detected.”
Cells were washed 2 times with 4 °C PBS, and then incubated with secondary antibodies at 1:2000 dilution in blocking buffer for 1hour at room temperature. […] Cells were washed 2 times with 4 °C PBS, and then the nuclei were counterstain with DAPI (ThermoFisher) for 10 min at room temperature in the dark. Cells were washed 2 times with 4 °C PBS, and then 4 °C PBS was added to cells and then images were acquired.
EC 50 value was determined with non-linear regression.

[1] = tested on: STHdh 111/111 striatal cells; assay: Cell viability after heat shock (CellTiter Glo); details: Mus musculus, read-out: Cell Viability striatal cells 3h heat shocked
Method: Cell culture - ST HDH Q111/111 (CH00095, Coriell Institute) striatal derived cell line were grown at 33°C in DMEM (Sigma-Aldrich), supplemented with 10% fetal bovine serum (FBS), 1% Penicillin-Streptomycin (ThermoFisher Scientific), and 0.4 mg/ml G418 (Geneticin; Invitrogen). ST HDH Q111/111 are mouse striatal cells with polyQ length of 111.
Pre-Treatment of striatal cell line - First the medium was removed and new DMEM (DMEM, high glucose, HEPES, no phenol red) medium, supplemented with 10% fetal bovine serum (FBS), 1% Penicillin-Streptomycin, containing 10 µM compound was added. The cells were incubated at 33 °C for 24 hours.
Heat shock - Cells were heat shocked for 3 hours at 41 °C.
Treatment - Medium was removed and new DMEM (DMEM, high glucose, HEPES, no phenol red) medium, supplemented with 1% fetal bovine serum (FBS), 1% Penicillin-Streptomycin, containing 10 µM compound was added. The cells were incubated at 33 °C for 48 hours.
Cell Viability - Cell viability was measured according to manufacturer recommendations with CellTiter Glo (Promega).

STHdh 7/7 striatal cells = assay: Cell viability after heat shock (CellTiter Glo); format: cell-based; details: Mus musculus, 48 hours treatment, percentage in comparison to pre-heat shock cell viability, read-out: Cell Viability striatal cells 3h heat shocked
Method: RESULTS-Table 12bsummarizes the effect of the compounds on cell viability. STHdh 7/7 were heat shocked for 3 hours and treated for 48 hours with small molecule compounds. Table 12b lists the cell viability in striatal cells after 48 hours.
Effect of Compound 22 on Cell Viability of Wildtype Striatal Neurons - STHdh 7/7 cells are striatal cells that express wildtype huntingtin. These cells were cultured in the same conditions as described above for STHdh 111/111. The neurons were first heat shocked for 3 hours at 41 °C as described above. After 48 hours of treatment with the small molecule Compounds, cell viability was determined using the method described above. The "buffer" control is represents cells treated with a buffer only, without any compounds added. Some of the compounds show higher cell viability in comparison to control heat shocked STHdh 7/7 neurons with buffer and no treatment (Figure 5).

Mur16 and/or Mur46 = assay: Biacore Surface Plasmon Resonance (SPR) screening, binding to the target structures; details: third analog screening; binding to the target structure in comparison to parent compound
Method: Exon 1 of the HTT huntingtin (NCBI Gene ID 3064) was expressed as a fusion protein with (i) TRX only (MurTRX); (ii) 16Q (Mur16); and (iii) 46Q (Mur46). MurTRX, Mur16, and Mur46 were produced and purified by HIStag and size exclusion chromatography (SEC). The protocol for MurTRX, Mur16 and Mur46 expression was adopted from Bennett, M.J. et al. Proc. Natl. Acad. Sci. USA 99, 11634-11639. 2002.
Primary Screen - Results - 39 compounds determined from the in-silico screen were tested. Following solvent correction and blank subtraction, double referenced binding levels for samples were plotted against binding levels on both Mur 16 and Mur 46. […] The 4 compounds consistently bind with a higher response on the 16 Q surface than the 46 Q repeat surface, despite the MAb positive control showing the opposite trend.

Exon1 Q46 = Exon1 Q46 (Homo sapiens, UniProt P42858, INS38QQQQQQQQQQQQQQQQQQQQQQQQQ); assay: Circular dichroism study; format: binding; details: Exon1 Q46
Method: Protein samples were diluted with buffer to 7.5 µM prior to Circular Dichroism (CD) measurements. Measurements were conducted at room temperature.
Four spectra at each measurement were taken every 1 nm from 200 to 260 nm, scanning at 50 nm/min with an averaging time of 1 sec. Spectra were obtained from samples in 20 mM phosphate, pH 7.4. Ten scans were averaged for each sample spectrum
Single-wavelength readings at 222 nm were obtained. After subtraction of the Trx contribution, the α-helical content of Httex1 was estimated from its mean residue ellipticity (MREHttex1) at 222 nm. This calculation was conducted as described by Bravo-Arredondo (Bravo-Arredondo, J.M. et al., J Biol Chem. 2018 Dec 21;293(51):19613-19623).
MRE Exon-1 Q16 and Q46 (Mean Residue Ellipticity) was measured every 1 sec for 300 sec; the 301 readings for each sample were averaged and MRE Trx subtracted. The number of amino acids in each sample to experience a change in helicity was estimated using a previously developed helix-coil transition model, which gave the change in fraction of helicity (ΔfHelix) by the following equation: fHelix = (MREHttex1 −MRECoil)/(MREHelix −MRECoil) [formula] where MRE Exon1 Q26 or Q46 (MREHttex1 in the formula) describes the helix-coil transition, obtained from the difference between MRE Eon1 Q26 or Q46 at 222 nm of the fusion protein at the given temperature (in our case 37 °C) and the product of MRE Trx at 222 nm at the same temperature and the fraction of residues comprised by Trx in that particular construct, and MRECoil = 2220−53T,MREHelix =; (−44,000+250T)(1−(3)/(Nr)) [formula] given T as the temperature in °C and Nr as the number of residues.
In order to calculate an equilibrium of the two states model, percent α-helicity was calculated using the relation of MREHttex1 = 0 and -34700 (deg cm^2 dmol^-1) for 0% and 100% helicity, respectively. Table 14: Comparison between Kd, reversal of conformational changes of Exon1 Q46 and reduction of mHTT in comparison to untreated striatal neurons
The CD measurements protocol for Compound 101 was the same as outlined above except that from 206 nm - 210 nm and 220 nm - 224 nm, the step size was 0.2 nm, and the bandwidth was 1nm.

T1 sequence (P42858 with tags, fused parts or gaps with the stated changes): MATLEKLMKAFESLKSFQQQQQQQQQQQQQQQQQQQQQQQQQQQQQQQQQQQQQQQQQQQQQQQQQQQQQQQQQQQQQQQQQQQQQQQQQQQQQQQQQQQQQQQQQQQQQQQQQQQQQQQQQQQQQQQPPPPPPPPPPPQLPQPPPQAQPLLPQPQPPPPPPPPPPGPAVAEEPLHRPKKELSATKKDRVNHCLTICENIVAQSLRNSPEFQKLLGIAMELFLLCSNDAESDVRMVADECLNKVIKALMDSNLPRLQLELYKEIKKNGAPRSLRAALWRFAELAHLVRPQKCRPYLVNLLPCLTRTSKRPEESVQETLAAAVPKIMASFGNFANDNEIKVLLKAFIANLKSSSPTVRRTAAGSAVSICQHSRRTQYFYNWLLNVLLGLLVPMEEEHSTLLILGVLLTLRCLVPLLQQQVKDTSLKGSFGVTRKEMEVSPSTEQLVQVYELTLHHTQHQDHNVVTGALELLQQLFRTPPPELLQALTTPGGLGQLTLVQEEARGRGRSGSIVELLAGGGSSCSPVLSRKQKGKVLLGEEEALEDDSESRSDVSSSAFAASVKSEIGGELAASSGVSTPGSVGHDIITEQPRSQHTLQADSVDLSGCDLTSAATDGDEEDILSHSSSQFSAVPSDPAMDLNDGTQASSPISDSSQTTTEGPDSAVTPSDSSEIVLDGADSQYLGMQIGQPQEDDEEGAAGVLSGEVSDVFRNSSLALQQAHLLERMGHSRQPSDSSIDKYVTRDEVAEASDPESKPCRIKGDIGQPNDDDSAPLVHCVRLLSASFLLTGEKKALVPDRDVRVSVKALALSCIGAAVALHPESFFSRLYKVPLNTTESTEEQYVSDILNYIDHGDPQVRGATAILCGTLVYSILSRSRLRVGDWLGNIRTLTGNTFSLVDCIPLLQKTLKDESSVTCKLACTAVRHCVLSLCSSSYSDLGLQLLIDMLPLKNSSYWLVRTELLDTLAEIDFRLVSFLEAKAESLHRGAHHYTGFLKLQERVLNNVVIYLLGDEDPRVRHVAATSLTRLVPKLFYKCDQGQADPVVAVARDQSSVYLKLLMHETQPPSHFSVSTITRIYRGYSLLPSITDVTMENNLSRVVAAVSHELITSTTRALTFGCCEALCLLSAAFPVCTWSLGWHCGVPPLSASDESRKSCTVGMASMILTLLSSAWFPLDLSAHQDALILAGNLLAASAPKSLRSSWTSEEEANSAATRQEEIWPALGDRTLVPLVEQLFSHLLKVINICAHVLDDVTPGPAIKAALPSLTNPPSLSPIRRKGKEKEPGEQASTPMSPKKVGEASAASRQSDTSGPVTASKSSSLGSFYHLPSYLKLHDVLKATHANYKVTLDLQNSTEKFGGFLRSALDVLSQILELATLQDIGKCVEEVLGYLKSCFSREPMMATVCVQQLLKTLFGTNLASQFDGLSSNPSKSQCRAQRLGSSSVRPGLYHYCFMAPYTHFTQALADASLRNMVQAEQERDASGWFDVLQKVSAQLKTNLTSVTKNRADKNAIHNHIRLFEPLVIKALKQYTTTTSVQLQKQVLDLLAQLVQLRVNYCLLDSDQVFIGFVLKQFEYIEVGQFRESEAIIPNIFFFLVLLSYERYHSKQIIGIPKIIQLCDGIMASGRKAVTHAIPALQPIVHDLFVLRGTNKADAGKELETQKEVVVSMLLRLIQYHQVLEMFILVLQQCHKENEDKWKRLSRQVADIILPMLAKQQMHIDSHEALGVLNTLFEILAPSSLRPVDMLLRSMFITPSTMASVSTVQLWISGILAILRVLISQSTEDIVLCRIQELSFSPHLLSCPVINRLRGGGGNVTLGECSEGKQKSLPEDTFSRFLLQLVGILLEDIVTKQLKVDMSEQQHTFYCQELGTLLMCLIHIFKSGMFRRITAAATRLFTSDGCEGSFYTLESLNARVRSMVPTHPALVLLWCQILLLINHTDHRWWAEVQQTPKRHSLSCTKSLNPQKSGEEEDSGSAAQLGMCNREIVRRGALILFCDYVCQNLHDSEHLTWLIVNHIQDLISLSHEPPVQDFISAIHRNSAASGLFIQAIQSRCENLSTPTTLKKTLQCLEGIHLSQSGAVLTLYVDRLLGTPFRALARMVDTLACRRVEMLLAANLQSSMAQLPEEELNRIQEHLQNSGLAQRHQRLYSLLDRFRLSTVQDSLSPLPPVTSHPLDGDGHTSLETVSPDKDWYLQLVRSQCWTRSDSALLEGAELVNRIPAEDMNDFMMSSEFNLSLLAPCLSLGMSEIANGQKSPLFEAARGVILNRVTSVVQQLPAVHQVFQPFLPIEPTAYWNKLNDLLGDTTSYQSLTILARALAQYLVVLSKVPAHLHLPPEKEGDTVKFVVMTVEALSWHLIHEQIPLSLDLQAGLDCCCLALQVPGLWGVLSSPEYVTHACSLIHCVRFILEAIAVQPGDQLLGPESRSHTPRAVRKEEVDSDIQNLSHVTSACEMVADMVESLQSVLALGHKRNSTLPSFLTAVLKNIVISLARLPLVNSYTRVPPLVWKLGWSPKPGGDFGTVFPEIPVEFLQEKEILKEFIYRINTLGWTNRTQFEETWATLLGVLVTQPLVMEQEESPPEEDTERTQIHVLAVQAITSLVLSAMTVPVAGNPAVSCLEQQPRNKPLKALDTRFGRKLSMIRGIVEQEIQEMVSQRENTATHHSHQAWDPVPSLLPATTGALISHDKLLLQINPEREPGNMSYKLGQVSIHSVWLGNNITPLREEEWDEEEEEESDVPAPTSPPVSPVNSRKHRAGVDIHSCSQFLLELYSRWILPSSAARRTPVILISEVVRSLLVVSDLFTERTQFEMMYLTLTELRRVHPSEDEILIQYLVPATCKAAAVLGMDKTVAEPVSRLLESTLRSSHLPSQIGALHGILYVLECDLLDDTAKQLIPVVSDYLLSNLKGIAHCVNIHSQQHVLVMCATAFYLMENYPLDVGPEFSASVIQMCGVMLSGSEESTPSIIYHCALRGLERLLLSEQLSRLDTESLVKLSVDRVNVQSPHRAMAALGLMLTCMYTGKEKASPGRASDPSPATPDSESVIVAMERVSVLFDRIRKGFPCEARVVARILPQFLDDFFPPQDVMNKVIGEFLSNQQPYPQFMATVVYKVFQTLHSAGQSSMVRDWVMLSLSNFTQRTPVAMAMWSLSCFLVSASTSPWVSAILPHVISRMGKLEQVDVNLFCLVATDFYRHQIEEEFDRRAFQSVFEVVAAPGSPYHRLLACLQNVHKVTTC
Chain of Exon1 Q46 (P42858 with tags, fused parts or gaps with the stated changes): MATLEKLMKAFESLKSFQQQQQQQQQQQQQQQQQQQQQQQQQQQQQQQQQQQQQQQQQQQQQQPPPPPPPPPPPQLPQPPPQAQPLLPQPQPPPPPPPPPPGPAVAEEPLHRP

In the case of `CCc1[nH]c2ccc(C(=O)NCCN3CCN(C)CC3)cc2c1C` [Compound 9], the mHTT after treatment (mHTT) is reported as 37% and the viability at 10 µM ([1]; 48 h) is reported as 88%.
With `Cc1[nH]c2ccc(C(=O)NCCN3CCN(C)CC3)cc2c1C` [Compound 24] the remaining activity at 10 µM (mHTT) was 47% and the viability at 10 µM [1] was 103%.
For `Cc1[nH]c2ccc(C(=O)NCCN3CCOCC3(C)C)cc2c1C` [Compound 28], the remaining activity at 10 µM (mHTT) was 51%, the viability at 10 µM (STHdh 7/7 striatal cells) was 52.4% and the viability at 10 µM [1] was 18%.
For `CC(C)N(CCNC(=O)c1ccc2[nH]c3c(c2c1)CCCC3)C(C)C` [Compound 34], the mHTT after treatment (mHTT) was 56% and the viability at 10 µM ([1]; 48 h) was 60%.
With `O=C(NCCN1CCCCC1)c1ccc2[nH]c3c(c2c1)CCC3` [Compound 35] the remaining activity at 10 µM (mHTT) was 56% and the viability at 10 µM [1] was 103%.
Work on `Cc1c(C)n(C)c2ccc(C(=O)NCCN(C(C)C)C(C)C)cc12` [Compound 39] yielded a viability at 10 µM (STHdh 7/7 striatal cells) of 154% and a viability at 10 µM ([1]; 48 h) of 117%.
With `Cc1c(C)n(C)c2ccc(C(=O)NCCN3CCC3)cc12` [Compound 44, N-(2-(Azetidin-1-yl)ethyl)-1,2,3-dimethyl-1H-indole-5-carboxamide] the mHTT after treatment (mHTT) was 66%.
`Cc1c(C)n(C)c2ccc(C(=O)NCCN3CCCC3)cc12` [Compound 46, 1,2,3-Trimethyl-N-(2-(pyrrolidin-1-yl)ethyl)-1H-indole-5-carboxamide] gave a remaining activity at 10 µM (mHTT) of 66%.
Work on `Cc1[nH]c2ccc(C(=O)NCCN3CCCCC3)cc2c1C` [Compound 47, 2,3-Dimethyl-N-(2-(piperidin-1-yl)ethyl)-1H-indole-5-carboxamide] yielded a remaining activity at 10 µM (mHTT) of 66%.
`Cc1c(C)n(C)c2ccc(C(=O)NCCN3CCCCC3C)cc12` (stereo not drawn) [Compound 48] gave a remaining activity at 10 µM (mHTT) of 68%.
For `Cc1[nH]c2ccc(C(=O)NCCNC(C)(C)C)cc2c1C` [Compound 50], the remaining activity at 10 µM (mHTT) was 72%, the viability at 10 µM (STHdh 7/7 striatal cells) was 40.9% and the viability at 10 µM [1] was 67%.
`Cc1[nH]c2ccc(C(=O)NCCN(C)C3CCCC3)cc2c1C` [Compound 55] was tested, and the mHTT after treatment (mHTT) was 91% and the viability at 10 µM ([1]; 48 h) was 67%.
In the case of `CC(C)N(CCNC(=O)c1ccc2[nH]c3c(c2c1)CCCC3)C(C)C` [Compound 57], the Binding properties (Mur16 and/or Mur46) is reported as “++”.
`Cc1[nH]c2ccc(C(=O)NC3CCC(N(C)C)CC3)cc2c1C` (stereo not drawn) [Compound 101, N-(4-(dimethylamino)cyclohexyl)-2,3-dimethyl-1H-indole-5-carboxamide] was tested, and the “mHTT after 3 h heat shock and following 48 hours of compound treatment in comparison to untreated STHdh 111/111” value (mHTT) was 38%, the remaining activity at 10 µM (mHTT) was 38% and the Kd (Exon1 Q46) was 70 nM. For the same compound, the “Fraction Helix fH” value (Exon1 Q46; conc. Compound 0.01 µM) was 20.5%, the “Fraction Helix fH” value (Exon1 Q46; conc. Compound 0.059 µM) was 20.1% and the “Fraction Helix fH” value (Exon1 Q46; conc. Compound 0.158 µM) was 19.9%. The “Fraction Helix fH” value (Exon1 Q46; conc. Compound 0.647 µM) was 19.1%, the “Fraction Helix fH” value (Exon1 Q46; conc. Compound 1.62 µM) was 19.0% and the “Fraction Helix fH” value (Exon1 Q46; conc. Compound 4.04 µM) was 18.5%. For the same compound, the “Fraction Helix fH” value (Exon1 Q46; conc. Compound 13.68 µM) was 18.7% and the “Fraction Helix fH” value (Exon1 Q46; conc. Compound 37.77 µM) was 18.2%.
In the case of `CON1CCC(NC(=O)c2ccc3[nH]c(C)c(C)c3c2)CC1` [Compound 115], the viability at 10 µM (STHdh 7/7 striatal cells) is reported as 136%.
`CCN(CC)C(=O)CNC(=O)c1ccc2[nH]c(C)c(C)c2c1` [Compound 116] gave a viability at 10 µM (STHdh 7/7 striatal cells) of 118%.
With `Cc1[nH]c2ccc(C(=O)N(C)CCN3C[C@@H](C)O[C@@H](C)C3)cc2c1C` [Compound 117] the viability at 10 µM (STHdh 7/7 striatal cells) was 118%.
Work on `Cc1c(C)n(Cc2ccccc2)c2ccc(C(=O)NCCN(C)C)cc12` [Compound 118] yielded a viability at 10 µM (STHdh 7/7 striatal cells) of 110%.
`Cc1[nH]c2ccc(C(=O)N3CCN(C(C)C)CC3)cc2c1C` [Compound 119] gave a viability at 10 µM (STHdh 7/7 striatal cells) of 101%.
In the case of `COC[C@H](CCNC(=O)c1ccc2[nH]c(C)c(C)c2c1)OC` [Compound 120], the viability at 10 µM (STHdh 7/7 striatal cells) is reported as 100%.
Work on `Cc1[nH]c2ccc(C(=O)NCC(C)(C)OCC3CC3)cc2c1C` [Compound 121] yielded a viability at 10 µM (STHdh 7/7 striatal cells) of 100%.
Work on `CCN(CC)CCNCc1ccc2[nH]c(C)c(C)c2c1` [Compound 122] yielded a viability at 10 µM (STHdh 7/7 striatal cells) of 91.2%.
Work on `CCN(CCNC(=O)c1ccc2[nH]ccc2c1)C1CC1` [Compound 123] yielded a viability at 10 µM (STHdh 7/7 striatal cells) of 83.8%.
`CO[C@@H](CNC(=O)c1ccc2[nH]c(C)c(C)c2c1)C(C)C` [Compound 124] showed a viability at 10 µM (STHdh 7/7 striatal cells) of 76.2%.
Compound `Cc1[nH]c2ccc(C(=O)N(C)CCNC(=O)C(C)C)cc2c1C` [Compound 125] has a viability at 10 µM (STHdh 7/7 striatal cells) of 67.9%.
For `Cc1[nH]c2ccc(C(=O)N3CCCN(C(C)C)CC3)cc2c1C` [Compound 126], the viability at 10 µM (STHdh 7/7 striatal cells) was 42.5%.
`Cc1[nH]c2ccc(S(=O)(=O)NCCN3CCOCC3)cc2c1C` [Compound 127] was tested, and the “Nuclear mHTT after treatment” value (mHTT) was 23.9%.
`Cc1[nH]c2ccc(S(=O)(=O)NCCN3CCCCC3)cc2c1C` [Compound 128] was tested, and the “Nuclear mHTT after treatment” value (mHTT) was 79.9%.
